Counter-ions that a name gives are not always drawn.

Series [1] has as its system BCR–ABL1-transformed mouse B cells. Nature of the series: Real-time cell growth analysis by IncuCyte (GFP+ cell enrichment). In kind it is cell-based. The following applies: over 96 h.
Series [2] has the same test system. Nature of the series: Flow cytometric viability analysis (viability dye). In kind it is cell-based. On the set-up: Live gate (viability dye) / Dead gate (viability dye): unit not given here. The following applies: for Cell viability of BCR–ABL1 cells: 1–72 h, live cell count normalized to DMSO; for Dead gate (viability dye) / Live gate (viability dye): JM#170 10 µM, representative histogram of n = 3. The protocol:
Cells treated with either solvent control DMSO or different concentrations of inhibitors for different time points were collected and washed with ice-cold PBS. […] After washing, labeled cells were resuspended in 100 μL of PBS and acquired using LSR-Fortessa (BD Bioscience, Heidelberg, Germany). FACS data were analyzed with FlowJo software version 10.0.

The test system of a further series is JNK1/2 phosphorylation. Nature of the series: Western blot, basal JNK1/2 phosphorylation in BCR–ABL1 cells. In kind it is cell-based, mouse. The following applies: 10 µM, no CXCL12, 5 min; n = 3. The protocol:
BCR–ABL1 cells were collected as 5 × 10^6 cells/500 μL complete media and treated either with DMSO or different inhibitors in the absence and presence of 100 ng/mL mouse CXCL12 for 5, 15, and 30 min at 37 °C. Cells were then immediately transferred onto ice to stop the reaction and washed with ice-cold PBS. […] For each treatment, 15 μL of cell extract was mixed with 5 μL of 4X Laemmli buffer (reducing), boiled at 95 °C for 10 min, and run on 10% SDS-PAGE. Gels were wet-transferred to PVDF membranes (Millipore, Burlington, MA, USA) and stained with 0.1% ponceau-S solution to check for efficient blotting. The membranes were blocked with 3% BSA solution and incubated with primary antibodies at 4 °C overnight. The next day, primary antibodies were washed, and membranes were probed with horseradish peroxidase (HRP)-conjugated secondary antibodies at RT for 2 h. After washing, the blots were developed using Immobilon ECL Ultra Western HRP Substrate (#WBULS0500, Millipore), and images were acquired with a Fusion SL gel imaging system (Vilber Lourmat, Eberhardzell, Germany).
For orientation: A western blot detects proteins with antibodies after separation by electrophoresis.

Series [3] relates to CXCR4. Nature of the series: CXCL12-driven calcium flux in SupB15 cells. The series is classed as cell-based. The following applies: 1 µM, 10 min pre-treatment, 100 ng/mL human CXCL12; n = 3. The protocol: Ca^2+ signaling was analyzed as described previously. Briefly, SupB15 and 697 cells were collected at 1 × 10^6 cells/treatment and loaded with calcium-sensitive dye Indo-1 AM (#I1223, Invitrogen) and 0.5 mg/mL of pluronic F-127 (#P3000MP, Invitrogen) in their respective media supplemented with 1% FBS at 37 °C for 45 min. Cells were then washed and treated with the inhibitors for 10 min at 37 °C. Baseline signal for calcium was measured for 30 s via flow cytometry, followed by stimulation with 100 ng/mL human CXCL12. The area under the curve (AUC) of each calcium flux plot was determined using FlowJo. The AUC of the water control (solvent for CXCL12) was subtracted from each treatment to obtain the correct estimation of the calcium signal upon CXCL12 stimulation.
(Calcium assays in cells follow changes in intracellular calcium, usually with a dye or a luminescent sensor.)

Series [4] relates to CXCR4. The following applies: ref [14],[17]; cited from earlier work.
Series [5] has as its system TKO-EV cells (untransformed mouse BM pro-B cells). Nature of the series: Real-time cell growth analysis by IncuCyte, untransformed TKO-EV cells. The following applies: 1, 5 and 10 µM, 96 h; n = 3.
Method: A flat-bottom 96-well plate was coated with 0.01% poly-L ornithine (#P4957, Sigma-Aldrich, Hamburg, Germany) for 1 h at room temperature (RT). BCR–ABL1, SupB15, and 697 cells were counted as 0.5 × 10^5 cells/well, while TKO-BCR–ABL1 and TKO-EV cells as 1 × 10^5 cells/well, which were labeled with IncuCyte Cytotox Red dye (#4632, Sartorius, Ulm, Germany) as per the manufacturer’s protocol. The cells were plated in 100 μL complete medium. […] Plate was prewarmed at 37 °C for 30 min prior to placing in the IncuCyte chamber. Scanning was conducted every two hours for total of 4 days. Images were acquired using a 20X objective in phase contrast and fluorescence mode at 4 images/well and analyzed using the cell-by-cell analysis module of IncuCyte software version 2020B (Essen Bioscience, Ann Arbor, MI, USA).
Series [6] relates to WT mouse BM-derived B cells. Briefly: Real-time cell growth, normal WT mouse BM-derived B cells. In kind it is cell-based. The following applies: 10 µM JM#170, 10 µM AMD3100, 1 µM Imatinib; 96 h; n = 2. How it is done:
(§1) The cells were plated in 100 μL complete medium.

The subject of series [7] is 697 cells. Nature of the series: Flow cytometric cell survival analysis, 697. In kind it is cell-based, human. The following applies: 10 µM; n = 3. How it is done:
Cells treated with either solvent control DMSO or different concentrations of inhibitors for different time points were collected and washed with ice-cold PBS. Cells were then stained with efluor 450-labeled fixable viability dye (FVD, #65-0863-14, eBioscience, San Diego, CA, USA) at 1:1000 dilution at 4 °C or using 50 μg/mL propidium iodide (PI, #P3566, Thermo Fisher, Dreieich, Germany) solution at RT for 15 min in the dark. After washing, labeled cells were resuspended in 100 μL of PBS and acquired using LSR-Fortessa (BD Bioscience, Heidelberg, Germany). FACS data were analyzed with FlowJo software version 10.0.
(In general: In flow cytometry, cells or beads pass a laser one at a time.)

The test system of another series is SupB15 cells. Briefly: Real-time cell growth by IncuCyte, SupB15. The series is classed as cell-based, human. The following applies: 10 µM, 96 h; n = 3. How it is done: as §1
In series [8] the test system is 697 cells. Briefly: Real-time cell growth by IncuCyte, 697. The series is classed as cell-based, human. The following applies: 10 µM, 96 h; n = 3. How it is done:
as §1

The subject of series [9] is Imatinib-resistant Ph+ ALL primary xenograft cells. Briefly: Real-time cell growth by IncuCyte, primary Ph+ ALL xenograft cells. The series is classed as cell-based, human. The following applies: 10 µM, 6 days; n = 2.
Method: Animals showing clinical symptoms of leukemia or with >75% leukemic blasts in blood were sacrificed, and total splenic cells were isolated and frozen for future use.
For Ph^+ ALL cells isolated from the xenografted NSG mice, frozen cells were thawed and cultured in MEM-alpha (Gibco) media supplemented with 20% FBS and 100 units/mL of penicillin/streptomycin for 5–16 h in a 5% CO2 incubator. Next, the cells were overlaid on 10 mL Ficoll-Paque™PLUS (#17144003, Cytiva, Freiburg, Germany) in 50 mL tubes and centrifuged at 400 g without break for 10 min at RT. The cells were collected from the interface of Ficoll and media and washed once with PBS. Viable cells were counted and plated into previously coated 48-well plates at 4.25 × 10^5 cells/well in 250 μL of media with or without the inhibitors. Scanning was conducted every two hours for total of 6 days in phase contrast mode and analyzed using the cell-by-cell analysis module of IncuCyte software version 2020B (Essen Bioscience).

For `c1cc(CN2CCCNCCNCCCNCC2)ccc1CN1CCCNCCNCCCNCC1` [AMD3100, AMD3100 octahydrochloride hydrate, reference compound], the “GFP enrichment (BCR–ABL1 cell growth) vs DMSO” value is reported as “also detectable” in [1] (5 µM) and “only distinct at later time points” in series [1] (10 µM, mean ± SEM, n = 4–5). Moreover, the “Cell viability of BCR–ABL1 cells” value in series [2] (10 µM, n = 3) is given as “did not induce any loss of cell viability”. In the series on JNK1/2 phosphorylation, the “Basal JNK phosphorylation vs DMSO” value is given as “such upregulation was not observed”. Further, the “CXCL12-induced calcium flux, SupB15” value in the series on CXCR4 [3] is “completely blocked the calcium flux”. The CXCL12-induced calcium signaling entry in the series with CXCR4 [4] was “block the intracellular calcium response”. The “Survival/growth of TKO-EV cells” value in series [5] is on record as “neither JM#170 nor AMD3100 had any effect”.
For the compound “ILRWSRK * (Pal)-NH2 [JM#170, lipid-conjugated truncated version of EPI-X4, CXCR4 antagonist]”, in series [1] (10 µM, mean ± SEM, n = 4–5), the “GFP enrichment (BCR–ABL1 cell growth) vs DMSO” value is on record as “significant reduction in GFP enrichment”. Besides, the “Cell viability of BCR–ABL1 cells” value in series [2] (10 µM, n = 3) was “strong and rapid cell death”. Further, in [2] (10 µM, within 1 h of treatment, n = 3), the Cells dying is ~ 70%. In addition, the “Dead gate (viability dye)” value amounted to 64.5 in [2] (1 h), 85.0 in series [2] (24 h), 76.4 in series [2] (48 h) and 63.6 in series [2] (72 h). The “Live gate (viability dye)” value in series [2] (1 h) was 35.5; in series [2] (24 h) it was 15.0; in series [2] (48 h), 23.6; in series [2] (72 h) it was 36.4. Besides, in series [6], the “Growth of normal WT mouse BM-derived B cells” value was “remained inactive against the WT B cells”. Besides, the “Basal JNK phosphorylation vs DMSO” value in the series with JNK1/2 phosphorylation is recorded as “transiently upregulated basal JNK phosphorylation”. The “CXCL12-induced calcium flux, SupB15” value in the series on CXCR4 [3] is given as “completely blocked the calcium flux”. Besides, in the series on 697 cells [7], the “697 cell survival vs DMSO” value is “no effect on the survival of these cells”. Moreover, in the series on SupB15 cells, the “SupB15 cell growth vs DMSO” value is “significantly reduced SupB15 cell growth”. In the series on 697 cells [8], the “697 cell growth vs DMSO” value is “no effect on the 697 cells”. Further, in series [9], the “Growth of Ph+ ALL xenograft cells vs DMSO” value is recorded as “significant growth inhibitory effect”. Further, the CXCL12-induced calcium signaling result in the series on CXCR4 [4] was “block CXCL12-induced calcium signaling”.

Source of the values: paper PMC11312813, “An Optimized Peptide Antagonist of CXCR4 Limits Survival of BCR–ABL1-Transformed Cells in Philadelphia-Chromosome-Positive B-Cell Acute Lymphoblastic Leukemia” (International Journal of Molecular Sciences, 2024).
